Assay results taken from patent US8962612B2, “Tetrahydroisoquinoline derivative” (Astellas Pharma Inc, priority 2011, dated 2015).

Legend:
human 5-HT5A receptor = human 5-HT5A receptor (Homo sapiens (Human), UniProt P47898); assay: Human 5-HT5A receptor binding inhibition test ([3H]5-CT); settings: [3H]5-CT binding, membranes of HEK293 cells expressing human 5-HT5A receptor; Ki calculated from IC50, Kd 4.95 nM
Experimental: An open reading frame (ORF; protein coding region) of human 5-HT5A receptor (Genbank AF498985) was cloned from a human hippocampus cDNA library and then inserted into a pCR2.1 vector (Invitrogen), and E. coli carrying the plasmid was cultured in a large scale. Thereafter, a full-length cDNA sequence of the human 5-HT5A receptor was analyzed and recombined into pcDNA3.1 vector (Invitrogen) as an expression vector, followed by a large scale culturing. The HEK293 cells (ATCC) as a human embryonic kidney-derived cell line were seeded, and the expression plasmid (1 μg) obtained as above was added thereto together with LIPOFECTAMINE 2000 (Invitrogen; 2 μl) to introduce genes into the HEK293 cells. Subsequently, expression cells were screened using Geneticin (G418 sulfate 500 μg/ml; KANTO KAGAKU) as a drug resistance marker. The recombinant cells expressing the genes prepared in this manner were cultured for 3 days in Dulbecco's Modified Eagle Medium (D-MEM, Sigma) supplemented with 10% fetal calf serum (FCS), 1% penicillin/streptomycin (Pc./Sm, Invitrogen), and 500 μg/ml G418. The above experimental procedure was performed according to a genetic engineering experiment manual of a known method (Sambrook, J. et al, “Molecular Cloning-A Laboratory manual”, Cold Spring Harbor Laboratory, NY, 1989) or the like, or the instruction attached to the reagents.
The HEK293 cells forced to express the human 5-HT5A receptor were cultured in a F500 plate and collected by being scarped with a scraper. After centrifugation, the sediment was collected, and an incubation buffer (50 mM Tris(HCl), pH 7.4, 10 mM MgSO4, 0.5 mM ethylenediaminetetraacetic acid (EDTA)) was added thereto. After homogenization, centrifugation was performed again, and the sediment was thoroughly suspended in the incubation buffer added thereto. After this procedure was repeated, the protein concentration was measured, thereby completing membrane preparation.
A test compound and 150 μM of a DMSO solution of 5-carboxamide tryptamine (5-CT) were added to a 96-well plate at 2 μl/well and suspended in the incubation buffer, and the HEK293 cells forced to express the human 5-HT5A receptor that were prepared at a concentration of 200 μg/ml were added thereto at 100 μl/well. The cells were incubated for 15 minutes at room temperature, and then a [^3H]5-CT solution (3 nM [^3H]5-CT, incubation buffer) was added thereto at 100 μl/well.
100 μl of the cell solution was separately dispensed into a liquid scintillation vial, and 2 ml of Aquasol II (registered trademark) was added thereto, followed by stirring. Thereafter, the radioactivity thereof was measured using a liquid scintillation counter. The cells were incubated for 60 minutes at 37° C. The reaction mixture was aspirated into a 96-well GF/C filter plate having undergone pretreatment with 0.2% polyethyleneimine, and washed 6 times with an ice-cold 50 mM Tris (pH 7.4) buffer. Thereafter, the GF/C filter plate was dried.
MicroScint™-PS (registered trademark) was added to the plate at 40 μl/well, and the radioactivity remaining on the GF/C filter plate was measured using TopCount.
In each test example, regarding the [^3H]5-CT binding inhibitory activity resulting from the test compound, the radioactivity at the time when only DMSO was added was regarded as 0%, and the radioactivity at the time when 1.5 μM 5-CT was added was regarded as 100% inhibition, thereby calculating an IC50 value. In addition, from a Kd value of [^3H]5-CT obtained from Scatchard analysis, a Ki value was calculated by the following formula. Ki=IC50/(1+concentration of ligand added/Kd(4.95 nM))

male ICR mouse [1] = assay: MK-801-induced increase in level of physical activity (hyperactivity) of mouse; format: in vivo; settings: MK-801 0.3 mg/kg, significance P<0.05 vs vehicle
Experimental: (§1) The improvement effect of the compound of formula (I) on schizophrenia was evaluated by the measurement of the level of physical activity reduced by the administration of the compound, in a model having symptoms induced by methamphetamine (hereinafter, abbreviated to MAP) and MK-801.
(§2) The animals were taken out of a breeding cage, and the test compound was orally administered to the animal. Thereafter, the animals were put in the breeding cage. 30 minutes later, the animals were put in a cage for measurement, and the level of physical activity of the animals administered only with the test compound was measured. Another 30 to 90 minutes later, the animals were taken out, and drugs (MAP; 1.5 mg/kg or MK-801; 0.3 mg/kg dissolved in physiological saline) increasing the level of physical activity were respectively administered to the animals subcutaneously or intraperitoneally. The level of physical activity for a certain period of time (60 minutes) was measured using an instrument measuring a level of physical activity (CompACT AMS, MUROMACHI KIKAI CO., LTD.) by an infrared sensor.
For the normal mouse (mouse administered with physiological saline) and the mouse administered with the medication increasing the level of physical activity, Student's T test was performed in the respective intervals to judge the effect. For the group administered with the test compound, Dunnett's T test was performed for the comparison with a vehicle group, whereby the effect of the compound was tested. When there was a significant difference (P<0.05), the compound was judged to be effective.

male ddy mouse = assay: Scopolamine-induced spontaneous alternation behavior in mouse (Y-maze); format: in vivo; settings: scopolamine 0.5 mg/kg i.p., alternation rate, p<0.05 vs control
Experimental: The improvement effect of the compound of formula (I) on dementia and the cognitive disease of schizophrenia was evaluated by the known test method described above by using a short-term learning disability model.
10 to 30 minutes after the test compound was orally administered, scopolamine at 0.5 mg/kg or MK-801 (physiological saline for a normal group) at 0.15 mg/kg was intraperitoneally administered, and the test was performed 20 minutes after the administration. In addition, for a normal group (group administered with physiological saline) and a control group (group administered with scopolamine at 0.5 mg/kg or MK-801 at 0.15 mg/kg), a vehicle was orally administered when the test compound was administered.
The mouse was put into one end of an arm of a maze (Y-maze) having arms of the same length that extended in three directions. The mouse was allowed to freely explore for 8 minutes, and the number of entries into the arm for the 8 minutes was counted. Moreover, a case where the mouse consecutively entered three different arms was regarded as spontaneous alternation behavior, and a ratio of the number of times of such a behavior to the total entry number was regarded as alternation rate and calculated by the following formula. Alternation rate(%)=number of times of spontaneous alternation behavior/(total entry number−2)×100
When a significant difference (Student's T test) was observed between the normal group and the control group in the alternation rate (%), the learning disability was considered to be induced by the administration of scopolamine or MK-801. By performing Dunnette's test for comparing the test compound-administered groups with the control group, whether or not the test compound has an action […] was determined. In each test, p<0.10 was regarded as a trend, and p<0.05 was regarded as a significant difference.

male ICR mouse [2] = assay: Methamphetamine (MAP)-induced increase in level of physical activity (hyperactivity) of mouse; format: in vivo; settings: oral dose 0.03 mg/kg; MAP 1.5 mg/kg; significance P<0.05 vs vehicle
Experimental: as §1, §2
For the normal mouse (mouse administered with physiological saline) and the mouse administered with the medication increasing the level of physical activity, Student's T test was performed in the respective intervals to judge the effect. […]

BALB/3T3 = assay: Test for evaluating phototoxic effect (neutral red incorporation, UV irradiation); format: cell-based; settings: BALB/3T3, UV 70 minutes 1200 μW/cm2 vs non-irradiated
Experimental: 1) BALB/3T3 is peeled from a culture flask, and the cell number is counted.
2) The cell concentration is adjusted to 0.7×10^5 cells/ml, and the cells are seeded into a 96-well plate at 100 μl/well. PBS is added in an amount of 100 μl to a line of wells in both ends where the cells are not seeded.
3) The cells are cultured in a CO2 incubator for 1 day.
4) DMSO is added to a test compound, and the EBSS is further added thereto and dissolved. Ultrasonic waves, heating.
5) The compound solution of the highest concentration is transferred to the adjacent tube by 300 μL. This operation is repeated to prepare solutions having serial dilution concentration.
10) For each compound, compound solutions of 8-serial dilutions are dispensed at 100 μL/well.
11) The plates are allowed to stand still in a dark place (in a drawer of a lab bench) for 60 minutes.
12) Thereafter, the plates are irradiated with UV for 70 minutes (1200 μW/cm^2). The plate not irradiated is put in an empty box.
1) Neutral red (NR) is prepared in an amount of 50 μg/ml
3) The NR solution is dispensed at 100 μL/well.
4) Culturing is performed for 3 hours in a CO2 incubator.
8) The NR eluent is dispensed at 150 μl/well.
10) An absorbance at 540 nm is measured using a microplate reader.
According to the above test example 8, several compounds of formula (I) were evaluated. […] Herein, MPE refers to a value showing Mean Photo Effect. MPE can be calculated according to Equation 2 of the following document, for example.

human 5-HT5A receptor, sequence (P47898 whole entry): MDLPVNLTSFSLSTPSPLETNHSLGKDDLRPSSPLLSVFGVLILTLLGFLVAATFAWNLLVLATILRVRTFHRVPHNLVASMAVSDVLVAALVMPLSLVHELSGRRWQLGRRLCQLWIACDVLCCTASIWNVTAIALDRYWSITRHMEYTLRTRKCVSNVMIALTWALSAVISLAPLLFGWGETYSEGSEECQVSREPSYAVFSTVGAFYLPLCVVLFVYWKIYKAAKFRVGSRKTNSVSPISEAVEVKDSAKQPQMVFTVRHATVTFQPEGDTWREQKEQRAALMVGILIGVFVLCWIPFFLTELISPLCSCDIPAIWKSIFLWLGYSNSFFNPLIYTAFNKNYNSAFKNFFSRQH

Ki (human 5-HT5A receptor) | SMILES | also measured
6.9 nM | Cl.NC(N)=NC(=O)N1CCc2c(F)ccc(-c3ncc(F)cc3F)c2C1 [Ex 46] | hyperactivity induced by MK-801 (male ICR mouse [1]; oral dose 0.03 mg/kg): significantly suppressed; scopolamine-induced spontaneous alternation behavior (male ddy mouse; oral dose 0.003 mg/kg): significantly inhibited
6.6 nM | NC(N)=NC(=O)N1Cc2c(-c3ccc(F)cc3F)ccc(Cl)c2C(F)C1 (stereo not drawn) [Ex 49] | –
3.9 nM | Cc1ccc(-c2ncc(F)cc2F)c2c1CCN(C(=O)N=C(N)N)C2 [Ex 60] | hyperactivity induced by MK-801 (male ICR mouse [1]; oral dose 0.03 mg/kg): significantly suppressed
0.88 nM | NC(N)=NC(=O)N1Cc2c(-c3c(F)cc(F)cc3F)ccc(F)c2C2(CC2)C1 [Ex 74] | –
3.7 nM | NC(N)=NC(=O)N1CCc2c(F)ccc(-c3cc(F)c(F)cc3F)c2C1 [Ex 79] | –
2.7 nM | NC(N)=NC(=O)N1Cc2c(C3CC3)ccc(F)c2C2(CC2)C1 [Ex 76] | hyperactivity induced by MK-801 (male ICR mouse [1]; oral dose 0.1 mg/kg): significantly suppressed

More lines, now with the values behind:

SMILES | Ki (human 5-HT5A receptor) | also measured
CC1CN(C(=O)N=C(N)N)Cc2c(-c3c(F)cccc3F)ccc(F)c21 (stereo not drawn) [Ex 69] | 1.6 nM | –
NC(N)=NC(=O)N1CCc2cccc(-c3ncc(F)cc3F)c2C1 [Ex 81] | 4.2 nM | –
NC(N)=NC(=O)N1CCc2c(Cl)ccc(-c3c(F)cncc3F)c2C1 [Ex 61] | 2.5 nM | –
NC(N)=NC(=O)N1CCc2c(F)ccc(-c3c(F)cc(F)cc3F)c2C1 [Ex 26] | 0.68 nM | hyperactivity induced by MK-801 (male ICR mouse [1]; oral dose 0.03 mg/kg): significantly suppressed; hyperactivity induced by MAP (male ICR mouse [2]): significantly inhibited; scopolamine-induced spontaneous alternation behavior (male ddy mouse; oral dose 0.03 mg/kg): significantly inhibited; MPE (Mean Photo Effect) (BALB/3T3): 0.00
NC(N)=NC(=O)N1Cc2c(-c3ccc(F)cc3F)ccc(F)c2C2(CC2)C1 [Ex 80] | 0.85 nM | –
NC(N)=NC(=O)N1CCc2cccc(-c3cc(F)c(F)cc3F)c2C1 [Ex 8] | 3.6 nM | –
NC(N)=NC(=O)N1Cc2c(-c3c(F)cccc3F)ccc(F)c2C2(CC2)C1 [Ex 66] | 0.75 nM | –
NC(N)=NC(=O)N1CCc2c(F)ccc(-c3c(F)cccc3F)c2C1 [Ex 28] | 1.1 nM | hyperactivity induced by MK-801 (male ICR mouse [1]; oral dose 0.03 mg/kg): significantly suppressed; hyperactivity induced by MAP (male ICR mouse [2]): significantly inhibited; scopolamine-induced spontaneous alternation behavior (male ddy mouse; oral dose 0.003 mg/kg): significantly inhibited; MPE (Mean Photo Effect) (BALB/3T3): 0.00
NC(N)=NC(=O)N1CCc2c(F)ccc(-c3ncc(Cl)cc3Cl)c2C1 [Ex 62] | 1.9 nM | hyperactivity induced by MK-801 (male ICR mouse [1]; oral dose 0.01 mg/kg): significantly suppressed; scopolamine-induced spontaneous alternation behavior (male ddy mouse; oral dose 0.003 mg/kg): significantly inhibited
NC(N)=NC(=O)N1CCc2c(Cl)ccc(-c3c(F)cc(F)cc3F)c2C1 [Ex 23] | 1.1 nM | hyperactivity induced by MK-801 (male ICR mouse [1]; oral dose 0.03 mg/kg): significantly suppressed; scopolamine-induced spontaneous alternation behavior (male ddy mouse; oral dose 0.003 mg/kg): significantly inhibited; MPE (Mean Photo Effect) (BALB/3T3): 0.00
NC(N)=NC(=O)N1CCc2c(Cl)ccc(-c3ccc(F)cc3F)c2C1 [Ex 44] | 2.7 nM | –
NC(N)=NC(=O)N1Cc2c(-c3ccccc3F)ccc(F)c2C2(CC2)C1 [Ex 86] | 0.95 nM | –
NC(N)=NC(=O)N1Cc2c(-c3cc(F)c(F)cc3F)ccc(F)c2C2(CC2)C1 [Ex 78] | 1.3 nM | hyperactivity induced by MK-801 (male ICR mouse [1]; oral dose 0.1 mg/kg): significantly suppressed; scopolamine-induced spontaneous alternation behavior (male ddy mouse; oral dose 0.03 mg/kg): significantly inhibited
NC(N)=NC(=O)N1CCc2c(F)ccc(-c3ncc(Cl)cc3F)c2C1 [Ex 4, 8-(5-chloro-3-fluoropyridin-2-yl)-N-(diaminomethylene)-5-fluoro-3,4-dihydroisoquinoline-2(1H)-carboxamide] | 4.3 nM | –
